Test results published in patent publication US20120094964A1, “SULFAMOYL BENZOIC ACID DERIVATIVES AS TRPM8 ANTAGONISTS” (priority 2009, published 2012).
pIC50: −log10 of the molar value.

Target: T1, human TRPM8 (Homo sapiens, UniProt Q7Z2W7)
T1 construct: expressed in transfected cells
Experiment: In Vitro human TRPM8 Functional Assay (intracellular Ca2+, Fluo4, FDSS, menthol activation)
Assay type: cell-based
Details: HEK293 cells stably expressing human TRPM8; activation with L-(-)-Menthol; 11-point dose-response
Description: In Vitro human TRPM8 Functional Assay
The functional activity of compounds was determined by measuring changes in intracellular calcium concentration using a Ca^2+-sensitive fluorescent dye, Fluo4 (Molecular Probes). The changes in fluorescent signal were monitored by the cell imaging technology by Hamamatsu Photonics's Functional Drug Screening System (FDSS).
HEK293 cells stably expressing human TRPM8 were grown in T175 flasks, in a 5% CO2 humidified incubator to about 80% confluence. Media composition consisted of Dulbecco's Modified Eagle Medium (high glucose), 10% fetal calf serum (FCS), 100 units/ml Penicillin, 100 microg/ml Streptomycin and 600 microg/ml Geneticine.
1. Plate-out HEK293-TRPM8 cells (40 microL medium containing 30,000 cells per well) into poly-D-lysine coated 384-well plates (BD FALCON) at 24 hours prior to assay.
1. […] 2. […] 3. Place the plate at room temperature in dark for 1 hour. 4. […] 5. Add 20 microL of compound solutions into each well and leave the plate for 5 minutes under the dark at room temperature. 6. Measure activity by FDSS as follows: • Set the assay plate on the stacker of FDSS • Start the detection of fluorescence intensity • After 30 sec, add 20 microL of 90 microM L-(−)-Menthol
IC50 values for compounds of the present invention were determined from 11-point dose-response studies. Curves were generated using the average of duplicate wells for each data point. Finally, the IC50 values are calculated with the best-fit dose curve determined by XLfit (ID Business Solutions Ltd.).

T1 sequence (Q7Z2W7 whole entry): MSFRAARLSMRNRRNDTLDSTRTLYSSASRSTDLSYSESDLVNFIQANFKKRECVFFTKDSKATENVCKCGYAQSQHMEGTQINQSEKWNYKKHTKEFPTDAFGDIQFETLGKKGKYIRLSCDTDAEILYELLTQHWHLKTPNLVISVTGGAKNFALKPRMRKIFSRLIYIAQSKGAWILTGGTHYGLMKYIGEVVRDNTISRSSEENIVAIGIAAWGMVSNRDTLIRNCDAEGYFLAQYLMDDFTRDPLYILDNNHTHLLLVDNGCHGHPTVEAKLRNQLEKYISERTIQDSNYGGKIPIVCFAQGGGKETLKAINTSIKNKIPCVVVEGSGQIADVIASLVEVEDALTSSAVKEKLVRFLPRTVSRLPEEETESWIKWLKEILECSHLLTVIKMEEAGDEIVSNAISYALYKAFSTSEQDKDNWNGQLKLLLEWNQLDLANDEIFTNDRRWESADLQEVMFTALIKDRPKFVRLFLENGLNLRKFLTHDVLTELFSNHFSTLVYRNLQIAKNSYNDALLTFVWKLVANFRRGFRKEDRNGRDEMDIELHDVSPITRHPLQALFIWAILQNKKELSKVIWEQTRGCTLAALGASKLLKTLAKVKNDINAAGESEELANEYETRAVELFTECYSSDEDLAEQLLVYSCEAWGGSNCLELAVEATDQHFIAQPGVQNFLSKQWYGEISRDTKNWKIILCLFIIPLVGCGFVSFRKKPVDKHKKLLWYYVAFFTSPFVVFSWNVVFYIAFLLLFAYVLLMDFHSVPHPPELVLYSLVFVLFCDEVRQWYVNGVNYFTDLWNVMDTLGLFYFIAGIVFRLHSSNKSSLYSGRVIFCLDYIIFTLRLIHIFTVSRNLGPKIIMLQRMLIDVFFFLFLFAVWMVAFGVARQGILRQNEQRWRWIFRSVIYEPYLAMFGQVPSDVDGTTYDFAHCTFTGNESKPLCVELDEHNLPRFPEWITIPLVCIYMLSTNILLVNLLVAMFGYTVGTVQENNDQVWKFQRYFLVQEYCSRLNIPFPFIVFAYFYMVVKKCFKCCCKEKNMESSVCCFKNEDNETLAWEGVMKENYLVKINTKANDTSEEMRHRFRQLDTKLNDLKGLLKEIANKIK

Compound	pIC50
COc1cccc(C(C)N(c2cccc(OC)c2)S(=O)(=O)c2ccc(C)c(F)c2)c1 (centres unmarked) [Example 103, 3-Fluoro-N-(3-methoxyphenyl)-N-(1-(3-methoxy-phenyl)ethyl)-4-methyl benzenesulfonamide]	5.00 to 6.00
COc1ccc(N(Cc2ccccc2)S(=O)(=O)c2cccc(C(=O)O)c2)cc1 [Example 113, 3-(N-Benzyl-N-(4-methoxyphenyl)sulfamoyl) benzoic acid]	5.00 to 6.00
O=C(O)c1cc(S(=O)(=O)N(Cc2ccccc2)c2ccccc2)ccc1Cl [Example 117, 5-(N-Benzyl-N-phenylsulfamoyl)-2-chlorobenzoic acid]	4.52 to 5.00
O=C(O)c1ccc(S(=O)(=O)N(Cc2ccc(N3CCCC3=O)cc2)c2ncc(Cl)cc2Cl)cc1 [Example 74, 4-(N-(3,5-Dichloropyridin-2-yl)-N-(4-(2-oxopyrrolidin-1-yl)benzyl)sulfamoyl)benzoic acid]	5.00 to 6.00
COc1ccc(OC)c(C(C)N(c2cccc(Cl)c2)S(=O)(=O)c2ccc(C)cc2)c1 (centres unmarked) [Example 86, N-(3-Chlorophenyl)-N-(1-(2,5-dimethoxyphenyl)ethyl)-4-methylbenzene-sulfonamide]	5.00 to 6.00
O=S(=O)(c1ccccc1)N(Cc1ccccc1)c1ccccn1 [Example 131, N-Benzyl-N-(pyridin-2-yl)benzenesulfonamide]	5.00 to 6.00
O=C(CN(c1cccc(C(F)(F)F)c1)S(=O)(=O)c1ccccc1)NCc1ccccc1 [Example 7, N-Benzyl-2-(N-(3-(trifluoromethyl)phenyl)benzenesulfonamido)acetamide]	4.52 to 5.00
O=C(O)c1cc(S(=O)(=O)N(Cc2ccccc2)c2ccccc2Cl)ccc1Cl [Example 121, 5-(N-Benzyl-N-(2-chlorophenyl)sulfamoyl)-2-chlorobenzoic acid]	5.00 to 6.00
O=C(O)c1cccc(S(=O)(=O)N(Cc2ccccc2)c2cccc(C(F)(F)F)c2)c1 [Example 111, 3-(N-Benzyl-N-(3-(trifluoromethyl)phenyl)sulfamoyl)benzoic acid]	5.00 to 6.00
COc1cccc(CN(c2ncc(C(F)(F)F)cc2Cl)S(=O)(=O)c2ccc(C(=O)O)cc2)c1 [Example 24, 4-(N-(3-Chloro-5-(trifluoromethyl)pyridin-2-yl)-N-(3-methoxybenzyl)sulfamoyl)benzoic acid]	> 6.00
CC(=O)NCc1ccc(S(=O)(=O)N(Cc2ccccc2)c2ncc(C(F)(F)F)cc2Cl)cc1 [Example 177, N-(4-(N-Benzyl-N-(3-chloro-5-(trifluoromethyl)pyridin-2-yl)sulfamoyl)benzyl)acetamide]	> 6.00
O=C(O)c1ccc(S(=O)(=O)N(Cc2ccc(-c3cccs3)cc2)c2ncc(C(F)(F)F)cc2Cl)cc1 [Example 155, 4-(N-(3-Chloro-5-(trifluoromethyl)pyridin-2-yl)-N-(4-(thiophen-2-yl)benzyl)sulfamoyl)benzoic acid]	> 6.00
O=S(=O)(c1cc(Cl)ccc1Cl)N(Cc1ccccc1)c1ccccn1 [Example 109, N-Benzyl-2,5-dichloro-N-(pyridin-2-yl)benzene sulfonamide]	5.00 to 6.00
COc1cccc(N(C(C)c2ccccc2C)S(=O)(=O)c2ccc(C)c(Cl)c2)c1 (centres unmarked) [Example 95, 3-Chloro-N-(3-methoxy-phenyl)-4-methyl-N-(1-o-tolylethyl)benzene-sulfonamide]	4.52 to 5.00
Cc1cc(C)c(S(=O)(=O)N(Cc2ccccc2)c2ccccn2)c(C)c1 [Example 127, N-Benzyl-2,4,6-trimethyl-N-(pyridin-2-yl)benzene-sulfonamide]	5.00 to 6.00
Cn1cc(-c2ccc(CN(c3ncc(C(F)(F)F)cc3Cl)S(=O)(=O)c3ccc(C(=O)O)cc3)cc2)cn1 [Example 152, 4-(N-(3-Chloro-5-(trifluoromethyl)pyridin-2-yl)-N-(4-(1-methyl-1H-pyrazol-4-yl)benzyl)sulfamoyl)benzoic acid]	> 6.00
O=C(O)c1ccc(S(=O)(=O)N(Cc2ccc(-n3cccn3)cc2)c2ncc(C(F)(F)F)cc2Cl)cc1 [Example 170, 4-(N-(4-(1H-Pyrazol-1-yl)benzyl)-N-(3-chloro-5-(trifluoromethyl)pyridin-2-yl)sulfamoyl)benzoic acid]	> 6.00
COc1ccc(OC)c(C(C)N(c2cccc(F)c2)S(=O)(=O)c2cc(F)ccc2C)c1 (centres unmarked) [Example 136, N-(1-(2,5-Dimethoxyphenyl)ethyl)-5-fluoro-N-(3-fluorophenyl)-2-methyl-benzenesulfonamide]	5.00 to 6.00
COc1ccc(N(Cc2ccccc2)S(=O)(=O)c2cc(C(=O)O)ccc2Cl)cc1 [Example 124, 3-(N-Benzyl-N-(4-methoxyphenyl)sulfamoyl)-4-chlorobenzoic acid]	5.00 to 6.00

Results, then the molecule that gave them:

pIC50	Compound
> 6.00	CC(C)c1ccc(CN(c2ncc(C(F)(F)F)cc2Cl)S(=O)(=O)c2ccc(C(=O)O)cc2)cc1 [Example 28, 4-(N-(3-Chloro-5-(trifluoromethyl)pyridin-2-yl)-N-(4-isopropylbenzyl)sulfamoyl)benzoic acid]
> 6.00	Cc1cc(S(=O)(=O)N(Cc2ccccc2)c2ncc(C(F)(F)F)cc2Cl)ccc1C(=O)O [Example 143, 4-(N-Benzyl-N-(3-chloro-5-(trifluoromethyl)pyridin-2-yl)sulfamoyl)-2-methylbenzoic acid]
> 6.00	Cc1cc(Cl)cnc1N(Cc1ccc(F)c(Cl)c1)S(=O)(=O)c1ccc(C(=O)O)cc1 [Example 77, 4-(N-(5-Chloro-3-methylpyridin-2-yl)-N-(3-chloro-4-fluorobenzyl)sulfamoyl)benzoic acid]
> 6.00	O=C(O)c1ccc(S(=O)(=O)N(CC2CCN(c3ccccn3)CC2)c2ncc(C(F)(F)F)cc2Cl)cc1 [Example 142, 4-(N-(3-Chloro-5-(trifluoromethyl)pyridin-2-yl)-N-((1-(pyridin-2-yl)piperidin-4-yl)methyl)sulfamoyl)benzoic acid]
> 6.00	C[C@H](c1ccccc1)N(c1ncc(C(F)(F)F)cc1Cl)S(=O)(=O)c1ccc(C(=O)O)cc1 [Example 166, (R)-4-(N-(3-Chloro-5-(trifluoromethyl)pyridin-2-yl)-N-(1-phenylethyl)sulfamoyl)benzoic acid]
> 6.00	O=C(O)Cc1ccc(S(=O)(=O)N(Cc2ccccc2)c2ncc(C(F)(F)F)cc2Cl)cc1 [Example 147, 2-(4-(N-Benzyl-N-(3-chloro-5-(trifluoromethyl)pyridin-2-yl)sulfamoyl)phenyl)acetic acid]
> 6.00	O=C(O)c1ccc(S(=O)(=O)N(Cc2cccc(Cl)c2)c2ncc(C(F)(F)F)cc2Cl)cc1 [Example 48, 4-(N-(3-Chloro-5-(trifluoromethyl)pyridin-2-yl)-N-(3-chlorobenzyl)sulfamoyl)benzoic acid]
> 6.00	O=C(O)c1ccc(S(=O)(=O)N(Cc2ccccc2OC(F)(F)F)c2ncc(C(F)(F)F)cc2Cl)cc1 [Example 51, 4-(N-(3-Chloro-5-(trifluoromethyl)pyridin-2-yl)-N-(2-(trifluoromethoxy)benzyl)sulfamoyl)benzoic acid]
> 6.00	O=C(O)c1ccc(S(=O)(=O)N(Cc2ccc(Cl)c(C(F)(F)F)c2)c2ncc(Cl)cc2Cl)cc1 [Example 66, 4-(N-(4-Chloro-3-(trifluoromethyl)benzyl)-N-(3,5-dichloropyridin-2-yl)sulfamoyl)benzoic acid]
> 6.00	N#Cc1ccc(S(=O)(=O)N(Cc2ccccc2)c2ncc(C(F)(F)F)cc2Cl)cc1 [Example 173, N-Benzyl-N-(3-chloro-5-(trifluoromethyl)pyridin-2-yl)-4-cyanobenzenesulfonamide]
> 6.00	O=C(O)c1ccc(S(=O)(=O)N(CCOc2ccc(F)cc2)c2ncc(C(F)(F)F)cc2Cl)cc1 [Example 30, 4-(N-(3-Chloro-5-(trifluoromethyl)pyridin-2-yl)-N-(2-(4-fluorophenoxy)ethyl)sulfamoyl)benzoic acid]
> 6.00	O=C(O)c1ccc(S(=O)(=O)N(Cc2ccc(F)c(F)c2)c2ncc(C(F)(F)F)cc2Cl)cc1 [Example 45, 4-(N-(3-Chloro-5-(trifluoromethyl)pyridin-2-yl)-N-(3,4-difluorobenzyl)sulfamoyl)benzoic acid]
> 6.00	O=C(O)c1ccc(S(=O)(=O)N(Cc2ccc(-c3ccccc3)cc2)c2ncc(C(F)(F)F)cc2Cl)cc1 [Example 158, 4-(N-([1,1′-Biphenyl]-4-ylmethyl)-N-(3-chloro-5-(trifluoromethyl)pyridin-2-yl)sulfamoyl)benzoic acid]
> 6.00	CN(C)S(=O)(=O)Nc1ccc(S(=O)(=O)N(Cc2ccccc2)c2ncc(C(F)(F)F)cc2Cl)cc1 [Example 194, N-Benzyl-N-(3-chloro-5-(trifluoromethyl)pyridin-2-yl)-4-((N,N-dimethylsulfamoyl)amino)benzenesulfonamide]
> 6.00	O=C(O)c1ccc(S(=O)(=O)N(Cc2ccccc2)c2ncc(-c3ccsc3)cc2Cl)cc1 [Example 184, 4-(N-Benzyl-N-(3-chloro-5-(thiophen-3-yl)pyridin-2-yl)sulfamoyl)benzoic acid]
> 6.00	O=C(O)c1ccc(S(=O)(=O)N(Cc2ccc(F)cc2)c2ncc(Cl)cc2Cl)cc1 [Example 61, 4-(N-(3,5-Dichloropyridin-2-yl)-N-(4-fluorobenzyl)sulfamoyl)benzoic acid]
